EP1570862A1, “Highly soluble binary cyclodextrin inclusion complexes” (priority 2004, dated 2005)
Converted amounts (≈) assume the structure as drawn.

Test: physchem
Conditions: water
Description: The samples were mechanically shaken in a thermostatic bath shaker (~ 200 rpm) to attain thermal equilibrium, an aliquot was centrifuged (when necessary) and filtered using a 0.45µm filter (cellulose acetate or cellulose nitrate, Advantec MFS Inc., Duplin, USA).
The samples were shaken for different time intervals.

solubility thermodynamic: 115 mM (≈ 131 mg/mL)
Compound: OC[C@H]1O[C@@H]2O[C@H]3[C@H](O)[C@@H](O)[C@@H](O[C@H]4[C@H](O)[C@@H](O)[C@@H](O[C@H]5[C@H](O)[C@@H](O)[C@@H](O[C@H]6[C@H](O)[C@@H](O)[C@@H](O[C@H]7[C@H](O)[C@@H](O)[C@@H](O[C@H]8[C@H](O)[C@@H](O)[C@@H](O[C@H]1[C@H](O)[C@H]2O)O[C@@H]8CO)O[C@@H]7CO)O[C@@H]6CO)O[C@@H]5CO)O[C@@H]4CO)O[C@@H]3CO [β-cyclodextrin]
